Reference: paper PMC10851555, “Safinamide, an inhibitor of monoamine oxidase, modulates the magnitude, gating, and hysteresis of sodium ion current” (BMC Pharmacology & Toxicology, 2024)

Experiments:
[1] = system: voltage-gated sodium ion (NaV) channels in pituitary GH3 cells; assay: Window INa [INa(W)] induced by ascending ramp voltage (−100 to +40 mV over 200 ms) in GH3 cells; format: cell-based, rat; conditions: for ∆G0 for gating of INa(W) activation at 0 mV: control 6.78 ± 1.1, ∆G0 = q × F × V1/2, n = 7
From the text: The sigmoidal relationship between Vramp-induced INa(W) and the upsloping Vramp (nonlinear current–voltage relationship) was investigated and fitted with the Boltzmann function as follows: [drawing 2]
where V is the membrane potential in millivolts, Erev is the reversal potential of INa, G is the INa conductance in nanosiemens, I is the current, Vh is the voltage at which half-maximal activation or inactivation of the current occurs, q is the apparent gating charge, F is Faraday’s constant, R is the universal gas constant, and T is the absolute temperature.
The free energy ∆G0 for the gating of INa(W) was determined by assuming a two-state gating model [equilibrium between closed (resting) and open states] of the NaV channel. The ∆G0 for the activation of INa(W) at 0 mV could be calculated as follows: q × F × V1/2 [45, 46]. The standard errors in ∆G0 ( [drawing 3] ) could be calculated as follows: […]
In the present study, we investigated whether the addition of SAF to GH3 cells modulates the magnitude of INa(W) induced by ascending Vramp. Test cells were maintained at −80 mV and subjected to Vramp ascending from −100 to +40 mV over 200 ms (i.e., ramp speed of 0.7 mV/ms) to induce INa(W). […] The ∆area values of INa(W) in the absence and presence of SAF and SAF plus Ran were calculated (Fig. 7B).
Fig. 7 Stimulatory effects of SAF on window INa [INa(W)] induced by an ascending ramp voltage Vramp in GH3 cells. For the experiments, the test cells were maintained at −80 mV and subjected to Vramp ranging from −100 to +40 mV over 200 ms (ramp speed of 0.7 mV/ms). (A) INa(W) trace in the absence (a, blue) and presence (b, red) of 10 μM SAF. The inset indicates the Vramp protocol, and the downward deflection indicates inward-directed current. The continuous gray lines corresponding to the untreated or SAF-treated (10 μM) cells were fitted (least-squares minimization) with the Boltzmann equation. The values of […] and q (apparent gating charge) induced by ascending Vramp over 200 ms in the absence (blue) of SAF were, respectively, −34 mV and 2.1 e; the corresponding values in the presence (red) of 10 μM SAF were −38 mV and 2.8 e, respectively. (B) Summary graph illustrating the effects of SAF (3 and 10 μM) and SAF (10 μM) plus Ran (10 μM) on the Δarea of INa(W) in GH3 cells (mean ± standard error of the mean; n = 7 for each point). The value of Δarea was measured at a voltage ranging from −80 and +40 mV, which corresponded to INa(W) induced by the ascending Vramp. […] (C) Summary graph illustrating the effects of SAF (3 and 10 μM) and SAF plus Ran (10 μM) on ΔG0 (mean ± standard error of the mean; n = 7 for each point). The estimation of ΔG0 for the induction of instantaneous INa(W) is described in the Materials and Methods section.

[2] = system: single NaV channels in GH3 cells; assay: Cell-attached single-channel NaV current recordings in GH3 cells; format: cell-based, rat; conditions: n = 7
Procedure: The composition of the external or bath solution [4-(2-hydroxyethyl)-1-piperazineethanesulfonic acid (HEPES)-buffered normal Tyrode’s solution] was as follows: 136.5 mM NaCl, 1.8 mM CaCl2, 5.4 mM KCl, 0.53 mM MgCl2, 5.5 mM glucose, and 5.5 mM HEPES–NaOH (pH 7.4). To measure K^+ currents (data not shown), we filled a patch pipette with an internal solution comprising 140 mM KCl, 1 mM MgCl2, 3 mM adenosine 5′-triphosphate disodium salt, 0.1 mM guanosine 5′-triphosphate disodium salt, 0.1 mM ethylene glycol tetraacetic acid, and 5 mM HEPES–KOH buffer (pH 7.2). To record the whole-cell INa, the K^+ in the internal solution was substituted with Cs^+, and the pH of the solution was adjusted to 7.2 by adding cesium hydroxide. In the single-channel experiments performed to record NaV currents, the pipette was filled with a Na^+-rich solution containing 136 mM NaCl, 0.53 mM MgCl2, 5.5 mM glucose, and 5.5 mM HEPES–NaOH (pH 7.2). The bath medium was a K^+-rich solution comprising 130 mM KCl, 10 mM NaCl, 3 mM MgCl2, 6 mM glucose, and 10 mM HEPES-KOH (pH 7.4). The solutions and culture media were generally filtered on the day of use by using sterile Acrodisc Syringe Filters containing a 0.2-μm Supor Membrane (Bio-Check; New Taipei City, Taiwan).
Single-channel NaV currents induced by depolarizing pulses ranging from −100 to −10 mV were measured and subsequently analyzed using pCLAMP 10.7. The opening events of the channels were generally evaluated through multi-Gaussian adjustments of the distribution of amplitude across channels. Functional independence between channels was determined by comparing the observed stationary probabilities with the values calculated based on the binomial law. For dwell-time analyses, only a single channel was used in the patch-clamp experiment.
To elucidate the mechanisms underlying the effects of SAF on the magnitude of INa, we investigated the actions of SAF and SAF plus MGB on single-channel NaV currents. This experiment was performed using the cell-attached configuration of the voltage-clamp test. Test cells were placed in K^+-rich solution, and the recording pipette was filled with Na^+-rich solution. SAF (10 μM) increased channel activity and decelerated current inactivation when the cells were exposed to depolarization stimuli ascending from –100 to –10 mV (rate of 0.1 Hz; Fig. 9A). Furthermore, the addition of MGB (10 μM) in the presence of 10 μM SAF reduced the probability of channel opening. […] Moreover, with the presence of 10 μM SAF, the mean open time of NaV channels was prolonged to […] (n = 7, P < 0.05) msec from a control value of 2.3 ± 0.3 msec (n = 7). […] Consistent with these findings, the mean open time of the NaV channel in the presence of 10 μM SAF (5.9 ± 1.1 ms; n = 7; P < 0.05) was longer than that in the control period (2.3 ± 0.3 ms, n = 7); the subsequent further addition of 10 μM MGB decreased the mean open time to 3.7 ± 0.7 ms (n = 7, P < 0.05) (Fig. 9B). […] MGB added during SAF exposure reversed the SAF-induced increase in NaV channel activity.

C[C@H](NCc1ccc(OCc2cccc(F)c2)cc1)C(N)=O [SAF, (S)-2-((4-((3-fluorobenzyl)oxy)benzyl)amino)propanamide]
∆G0 for gating of INa(W) activation at 0 mV ([1]; 3 μM SAF): 8.81 ± 1.6 kJ/mol | q (apparent gating charge) of INa(W) ([1]; 10 μM SAF, absence of SAF 2.1 e): 2.8 e | V1/2 (half-maximal activation voltage) of INa(W) induced by ascending Vramp (Boltzmann fit) ([1]; 10 μM SAF, absence of SAF −34 mV): −38 mV | ∆G0 for gating of INa(W) activation at 0 mV ([1]; 10 μM SAF): 10.36 ± 1.8 kJ/mol | amplitude and strength (∆area) of INa(W) ([1]; within 1 min of SAF exposure): sharply increased | channel activity (open-state probability) of NaV channels ([2]; 10 μM SAF, control 0.027 ± 0.007): 0.091 ± 0.006 | mean open time of the NaV channel ([2]; 10 μM SAF, control 2.3 ± 0.3 ms, second statement (Fig. 9B)): 5.9 ± 1.1 ms | mean open time of NaV channels ([2]; 10 μM SAF, control 2.3 ± 0.3 msec, first statement): 6.5 ± 0.7 ms | amplitude of the single-channel current ([2]; SAF 10 μM, control 2.01 ± 0.35 pA): 2.03 ± 0.37 pA
